According to ChEMBL document CHEMBL4765421, “Synthesis of natural 3'-Prenylchalconaringenin and biological evaluation of ameliorating non-alcoholic fatty liver disease and metabolic syndrome” (Eur J Med Chem, 2020):
Activity calls are given as the source filed them. The calls are words filed in the database; no cut-off is given here.

Experiments:
Mus musculus [1] = assay: In vivo effect on PPAR signaling in tyloxapol-induced Kunming mouse model of hyperlipidemia assessed as decrease in PPARgamma expression in white adipose tissue at 50 to 100 mg/kg, po measured after 24 hrs by Western blot analysis; type: functional, organism-based; details: dose 50-100 mg/kg
Mus musculus [2] = assay: Hypolipidemic activity in tyloxapol-induced Kunming mouse model of hyperlipidemia assessed as reduction in serum lipid level at 50 to 100 mg/kg, po measured after 24 hrs by macroscopic analysis; type: functional, organism-based; details: dose 50-100 mg/kg

Structure (SMILES): CC(C)=CCC/C(C)=C/Cc1c(O)cc(O)c(C(=O)/C=C/c2ccc(O)cc2)c1O
- Activity (Mus musculus [1]): Active
- Activity (Mus musculus [2]): Active
